The values that follow are results of earlier work, collected in article PMC12348585, “Semi-Synthesis, Anti-Leukemia Activity, and Docking Study of Derivatives from 3α,24-Dihydroxylup-20(29)-en-28-Oic Acid” (Molecules, 2025).

As a reminder, the IC50 is the midpoint of a concentration-inhibition curve.

In series [1] the test system is K562 cells. On the set-up: method as in PMID 32178533. The note with it: cited from earlier work.
In series [2] the test system is JURKAT cells. The note with it: read-out: IC50 in JURKAT cells; cited from earlier work.
Series [3] deals with normal peripheral blood lymphocytes (PBLs). The following applies: cited from earlier work.

Turning to `C=C(C=O)[C@@H]1CC[C@]2(C)CC[C@]3(C)[C@H](CC[C@@H]4[C@@]5(C)CC[C@H](O)C(C)(C)[C@@H]5CC[C@]43C)[C@@H]12` [3β-hydroxylup-20(29)-en-30-al], the IC50 is 19.5 ± 0.47 µM in series [1] and 11.7 ± 1.06 µM in series [2]. The “reduction of viability of normal peripheral blood lymphocytes (PBLs)” value in series [3] is 32.17%.
